Reference: paper PMC11077089, “Molecular basis of A. thaliana KEOPS complex in biosynthesizing tRNA t^6A” (Nucleic Acids Research, 2024)

Legend:
Format in all cases: biochemical
KB (KAE1–BUD32) = target: T1, KB (KAE1–BUD32) (Arabidopsis thaliana, UniProt Q94K14); assay: NADH-coupled ATPase assay; conditions: 2 mM ATP, 5 μM protein, 5 mM MgCl2, pH 7.5, 25°C
T1 construct: gene T1N24.12; pET21a-AtKAE1-BUD32-6His, E. coli; monomer (1:1) by SEC; with tRNA N6-adenosine threonylcarbamoyltransferase KAE1
T1 sequence (Q94K14 1-226): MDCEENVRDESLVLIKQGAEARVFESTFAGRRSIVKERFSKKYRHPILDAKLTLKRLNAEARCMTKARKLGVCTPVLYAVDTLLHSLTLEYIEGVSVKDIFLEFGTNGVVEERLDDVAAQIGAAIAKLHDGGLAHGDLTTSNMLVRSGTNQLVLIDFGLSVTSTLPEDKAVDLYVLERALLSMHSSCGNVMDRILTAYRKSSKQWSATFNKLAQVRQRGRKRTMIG
T1 sequence (O49653 1-353 partner): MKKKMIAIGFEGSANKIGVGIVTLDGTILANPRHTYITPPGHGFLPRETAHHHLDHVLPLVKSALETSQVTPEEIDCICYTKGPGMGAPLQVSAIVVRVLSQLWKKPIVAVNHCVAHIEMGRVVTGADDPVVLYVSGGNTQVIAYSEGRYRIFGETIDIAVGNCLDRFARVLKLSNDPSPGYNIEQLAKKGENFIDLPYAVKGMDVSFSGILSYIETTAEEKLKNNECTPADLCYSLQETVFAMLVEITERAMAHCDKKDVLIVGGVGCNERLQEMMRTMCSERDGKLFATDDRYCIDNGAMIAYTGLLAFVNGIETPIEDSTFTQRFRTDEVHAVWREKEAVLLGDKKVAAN

KBP (KAE1–BUD32–PCC1) = target: T2, KBP (KAE1–BUD32–PCC1) (Arabidopsis thaliana, UniProt Q94K14); assay: NADH-coupled ATPase assay; conditions: 2 mM ATP, 5 μM protein, 5 mM MgCl2, pH 7.5, 25°C
T2 construct: gene T1N24.12; subcomplex without CGI121, recombinant from E. coli; dimer by SEC; with tRNA N6-adenosine threonylcarbamoyltransferase KAE1; EKC/KEOPS complex subunit PCC1
T2 sequence (Q94K14 1-226): T1 sequence (Q94K14 1-226)
T2 sequence (O49653 1-353 partner): T1 sequence (O49653 1-353 partner)
T2 sequence (Q8GWD7 1-96 partner): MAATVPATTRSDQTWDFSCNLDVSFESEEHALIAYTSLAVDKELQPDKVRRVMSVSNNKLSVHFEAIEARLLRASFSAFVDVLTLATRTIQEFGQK

[1] = target: T3, AtYRDC (A. thaliana YRDC) (Arabidopsis thaliana, UniProt F4K0E6); assay: LC-MS of TC-AMP formation; conditions: 2 μM YRDC, 4 mM L-threonine, 2 mM ATP, 20 mM NaHCO3, 5 mM MgCl2, pH 7.5, 25°C
T3 construct: gene MUP24.1; pET21a-AtYRDC-6His, E. coli, synthetic DNA
T3 sequence (F4K0E6 1-288): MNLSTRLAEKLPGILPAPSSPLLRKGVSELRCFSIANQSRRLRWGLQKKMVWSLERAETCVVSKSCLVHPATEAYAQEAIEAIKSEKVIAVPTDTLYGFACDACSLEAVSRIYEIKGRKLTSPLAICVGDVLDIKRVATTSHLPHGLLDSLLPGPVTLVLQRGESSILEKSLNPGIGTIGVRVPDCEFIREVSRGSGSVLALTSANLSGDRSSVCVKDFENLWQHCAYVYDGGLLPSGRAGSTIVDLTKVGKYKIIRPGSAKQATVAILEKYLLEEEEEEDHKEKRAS

## Nc1ncnc2c1ncn2[C@@H]1O[C@H](COP(=O)(O)OP(=O)(O)OP(=O)(O)O)[C@@H](O)[C@H]1O [ATP]
KB (KAE1–BUD32)
  NADH-coupled ATPase assay: efficient conversion of ATP to ADP in the presence of KAE1–BUD32, PCC1–KAE1–BUD32 or KEOPS
KBP (KAE1–BUD32–PCC1)
  NADH-coupled ATPase assay: efficient conversion of ATP to ADP in the presence of KAE1–BUD32, PCC1–KAE1–BUD32 or KEOPS

## C[C@@H](O)[C@H](N)C(=O)O [L-threonine]
[1]
  LC-MS of TC-AMP formation: YRDC is active in catalyzing the formation of threonylcarbamoyl-AMP (TC-AMP)
